Earlier results as cited in article PMC4263960 (Pediatric blood & cancer, 2013).
Read-outs that look alike come from different tables or passages of the source.

Key:
[1] = test system: pediatric preclinical xenograft models; conditions: cited from earlier work
[2] = test system: neuroblastoma in children; conditions: 45 children with neuroblastoma; cited from earlier work
[3] = test system: recurrent solid tumors in children; conditions: cited from earlier work
[4] = test system: pediatric solid tumors; conditions: cited from earlier work
[5] = test system: Ewing sarcoma patients; conditions: cited from earlier work

Structure (SMILES): COc1ccc(S(=O)(=O)Nc2cccnc2Nc2ccc(O)cc2)cc1 [ABT-751]
- preclinical models with regression ([1]; all models): 4 of 25
- preclinical models with regression ([1]; neuroblastoma models refractory to vincristine and paclitaxel): 2 of 4
- objective responses [2]: absence of objective responses

Structure (SMILES): CCC1=C[C@@H]2CN(C1)Cc1c([nH]c3ccccc13)[C@@](C(=O)OC)(c1cc3c(cc1OC)N(C)[C@H]1[C@@](O)(C(=O)OC)[C@H](OC(C)=O)[C@]4(CC)C=CCN5CC[C@]31[C@@H]54)C2 [vinorelbine]
- patients with objective responses ([3]; astrocytoma): 1 of 4
- patients with objective responses ([3]; eight children with neuroblastoma): no responses
- patients with objective responses ([3]; medulloblastoma): 1 of 2
- patients with objective responses ([3]; nine patients with non-rhabdomyosarcoma soft tissue sarcoma): no responses
- patients with objective responses ([3]; rhabdomyosarcoma): 4 of 11
- patients with objective responses ([4]; Ewing sarcomas): one of seven
- patients with objective responses ([4]; osteosarcomas): one of five
- patients with objective responses ([4]; rhabdomyosarcoma): 6 of 12

Structure (SMILES): CC[C@]1(O)C[C@H]2CN(CCc3c([nH]c4ccccc34)[C@@](C(=O)OC)(c3cc4c(cc3OC)N(C=O)[C@H]3[C@@](O)(C(=O)OC)[C@H](OC(C)=O)[C@]5(CC)C=CCN6CC[C@]43[C@@H]65)C2)C1 [vincristine]
- patients with a partial response [5]: one of seven
